Test results taken from patent US11752157B2, “Oxytocin receptor antagonist therapy in the luteal phase for implantation and pregnancy in women undergoing assisted reproductive technologies” (Ferring B.V., priority 2014, dated 2023).
Where a SMILES comes first, the peptide text is derived from it. Bridges are numbered along the chain shown (N, C = ends). [ ]: non-standard residue; d: D form. Orn = NCCC[C@H](N)C(=O)O; Mpa = O=C(O)CCS

How the values were obtained:
IVF/ICSI patients [1] = assay: BASIC randomized, placebo-controlled, double-blind clinical trial: barusiban subcutaneously on the day of transfer, implantation in IVF/ICSI patients; type: in vivo, human
Excerpt: Example 1: A randomized, placebo-controlled, double-blind, parallel groups, multinational, multicenter trial assessing the effect of barusiban administered subcutaneously on the day of transfer on implantation and pregnancy rates in IVF/ICSI patients
BASIC was a randomized, double-blind, placebo-controlled, parallel groups, multinational, multicenter trial. It was designed to evaluate the effects of barusiban, administered either on the day of cleavage-stage embryo transfer or on the day of blastocyst transfer, on ongoing implantation rate in IVF/ICSI patients. The patients underwent controlled ovarian stimulation in the long GnRH agonist or GnRH antagonist protocol, received hCG for triggering of final follicular maturation, had undergone oocyte retrieval, and had daily luteal phase support by supplementation with vaginal progesterone starting on day 1 post-retrieval, and transfer on day 3 or 5 post-retrieval. Patients were randomized in a 1:1 ratio to either the barusiban group or the placebo group, with stratification according to the day of transfer (day 3 post-retrieval or day 5 post-retrieval) and the number of embryos/blastocysts to be transferred (1 or 2). In total, 255 IVF/ICSI patients were randomized in the trial and contributing with 440 embryos/blastocysts.
Investigational medicinal product, i.e., barusiban or placebo according to randomization, was administered as subcutaneous injections at two time points: 1st administration of 40 mg barusiban or placebo was […] prior to transfer and the 2nd administration of 10 mg barusiban or placebo was […] after the 1st administration.
Transfer was performed on day 3 (cleavage-stage embryos) or day 5 (blastocysts) after oocyte retrieval. On day 3, only embryos of good quality defined as ≥6 blastomeres and ≤20% fragmentation were transferred. On day 5, blastocysts with expansion and hatching status 3, 4, 5 or 6 were transferred. The actual number of transferred embryos/blastocysts for each individual patient depended on the availability of embryos; blastocysts of the required morphological quality, local regulations and clinical practice for the patient's age, but the maximum number was 2.
Key aspects related to the transfer procedure had been standardized. A speculum was inserted into the vagina and cleaning of the vagina and cervix was done according to local practices but with minimal manipulation and disturbance. Soft or ultrasoft catheters were used. The outer sheath of the catheter was inserted just protruding to the internal os (i.e. keeping the outer sheath in the cervical canal). The embryo(s)/blastocyst(s) were loaded into the inner sheath which was then inserted through the outer sheath. Using abdominal ultrasound guidance, the embryo(s)/blastocyst(s) were placed 1.5-2.0 cm from the fundus. The time from loading the inner catheter to placing the embryo(s)/blastocyst(s) should not have exceeded 1 min. After placement, the inner and outer catheters were withdrawn and checked for retained embryo(s)/blastocyst(s), mucus and blood. After confirmation that there were no embryo(s)/blastocyst(s) left in the catheters, the speculum was subsequently removed; this occurred approximately within 2 min after placement of the embryo(s)/blastocyst(s). Any difficulties/eventualities occurring during the transfer procedure were recorded.
Patients received vaginal progesterone tablets 100 mg twice daily from the day after oocyte retrieval and until the day of the clinical pregnancy visit. On the day of transfer, patients should insert the progesterone tablets at least 3 hours before transfer and at least 3 hours after transfer. Ongoing implantation rate (primary endpoint) was defined as the number of intrauterine viable fetuses 10-11 weeks after transfer divided by number of embryos/blastocysts transferred. […]

IVF/ICSI patients [2] = details: cited from earlier work

Compound | effect on improving ongoing implantation rate (IVF/ICSI patients [1]; blastocyst transfer on day 5 (receptive stage), p=0.0270) | odds ratio for ongoing implantation rate (IVF/ICSI patients [1]; blastocyst transfer on day 5 post-retrieval, vs placebo, CI 1.1-4.7, p=0.0270) | relative Δ of ongoing implantation rate vs placebo (IVF/ICSI patients [1]; blastocyst transfers (day 5), adjusted means 45% vs 27%) | adjusted mean of ongoing implantation rate (IVF/ICSI patients [1]; blastocyst transfers (day 5 post-retrieval), placebo 27%) | effect on ongoing implantation rate (IVF/ICSI patients [1]; cleavage-stage embryo transfer on day 3 (pre-receptive stage)) | odds ratio for ongoing implantation rate (IVF/ICSI patients [1]; cleavage-stage embryo transfer on day 3 post-retrieval, vs placebo, CI 0.3-1.2, p=0.1509) | odds ratio for ongoing implantation rate (IVF/ICSI patients [1]; overall (day 3+day 5), barusiban vs placebo, logistic regression, PP, 95% CI 0.7-1.8, p=0.6960) | observed overall ongoing implantation rate (IVF/ICSI patients [1]; overall (day 3+day 5 transfers), per-protocol population, 40 mg + 10 mg s.c. on day of transfer) | ongoing implantation rate (IVF/ICSI patients [1]; overall, intention-to-treat (ITT) population) | increase in implantation or live birth rates compared to placebo (IVF/ICSI patients [2]; administration on day 2 or day 3 post-retrieval (early luteal phase)) | live birth rate (IVF/ICSI patients [2]; cleavage-stage embryo transfer on day 2 or day 3 post-retrieval, N=800, placebo 38.0%)
barusiban | significant | 2.3 | 67% | 45% | No effect | 0.3 | 1.1 | 27.1% | 26.2% | – | –
CCOc1ccc(C[C@H]2NC(=O)CCSSC[C@@H](C(=O)N3CCC[C@H]3C(=O)N[C@@H](CCCN)C(=O)NCC(N)=O)NC(=O)[C@H](CC(N)=O)NC(=O)[C@H]([C@@H](C)O)NC(=O)[C@H]([C@@H](C)CC)NC2=O)cc1 [atosiban, 1-(3-mercaptopropanoic acid)-2-(O-ethyl-D-tyrosine)-4-L-threonine-8-L-ornithine-oxytocin] ([Mpa][dY](Et)ITNCP[Orn]G-NH2; disulfide 1-6) | – | – | – | – | – | – | – | – | – | no significant increase | 39.8%
